The NIST ThermoML archive (doi:10.1016/j.jct.2018.07.023)
“And” between values parts separate entries of the source, which are not always exact repeats. Identical values can stand only once. Numbers after ± are expanded uncertainties.

Columns and labels:
[1] = molar enthalpy of vaporization or sublimation; conditions: Static calorimetry
[2] = Molar enthalpy of transition or fusion; conditions: Crystal; DSC

COc1cc(C=O)ccc1O [vanillin]
Conditions | molar enthalpy [kcal/mol] | vapor or sublimation pressure
303.13 K, Crystal, Calculated from knudsen effusion weight loss | – | 6.6e-05 ± 2e-05 kPa and 6.5e-05 ± 2e-05 kPa
305.32 K, Crystal, Calculated from knudsen effusion weight loss | – | 8.9e-05 ± 2e-05 kPa and 8.8e-05 ± 2e-05 kPa
307.19 K, Crystal, Calculated from knudsen effusion weight loss | – | 0.000112 ± 2e-05 kPa and 0.000113 ± 2e-05 kPa and 0.000114 ± 2e-05 kPa
309.13 K, Crystal, Calculated from knudsen effusion weight loss | – | 0.000144 ± 2.1e-05 kPa and 0.000142 ± 2.1e-05 kPa and 0.000145 ± 2.1e-05 kPa
311.35 K, Crystal, Calculated from knudsen effusion weight loss | – | 0.000185 ± 2.1e-05 kPa and 0.000182 ± 2.1e-05 kPa and 0.000187 ± 2.1e-05 kPa
313.2 K, Crystal, Calculated from knudsen effusion weight loss | – | 0.000235 ± 2.2e-05 kPa and 0.000234 ± 2.2e-05 kPa and 0.000236 ± 2.2e-05 kPa
315.11 K, Crystal, Calculated from knudsen effusion weight loss | – | 0.000292 ± 2.3e-05 kPa and 0.00029 ± 2.2e-05 kPa and 0.000294 ± 2.3e-05 kPa
317.29 K, Crystal, Calculated from knudsen effusion weight loss | – | 0.000384 ± 2.4e-05 kPa and 0.000383 ± 2.4e-05 kPa
319.19 K, Crystal, Calculated from knudsen effusion weight loss | – | 0.000472 ± 2.6e-05 kPa and 0.000474 ± 2.6e-05 kPa and 0.000478 ± 2.6e-05 kPa
320.95 K, Crystal, Closed cell (Static) method | – | 0.00058 ± 0.00011 kPa
321.11 K, Crystal, Calculated from knudsen effusion weight loss | – | 0.000597 ± 2.9e-05 kPa and 0.000586 ± 2.9e-05 kPa and 0.000599 ± 2.9e-05 kPa
322.92 K, Crystal, Closed cell (Static) method | – | 0.00072 ± 0.00012 kPa
323.29 K, Crystal, Calculated from knudsen effusion weight loss | – | 0.000759 ± 3.4e-05 kPa and 0.00075 ± 3.3e-05 kPa and 0.000765 ± 3.4e-05 kPa
324.92 K, Metastable liquid, Closed cell (Static) method | – | 0.00192 ± 0.00013 kPa
324.98 K, Crystal, Closed cell (Static) method | – | 0.00092 ± 0.00012 kPa
325.2 K, Crystal, Calculated from knudsen effusion weight loss | – | 0.000955 ± 3.9e-05 kPa and 0.000953 ± 3.9e-05 kPa and 0.00094 ± 3.9e-05 kPa
326.9 K, Crystal, Closed cell (Static) method | – | 0.00114 ± 0.00012 kPa
326.91 K, Metastable liquid, Closed cell (Static) method | – | 0.00226 ± 0.00014 kPa
328.87 K, Metastable liquid, Closed cell (Static) method | – | 0.00268 ± 0.00015 kPa
328.94 K, Crystal, Closed cell (Static) method | – | 0.00143 ± 0.00013 kPa
330.87 K, Metastable liquid, Closed cell (Static) method | – | 0.00316 ± 0.00017 kPa
330.89 K, Crystal, Closed cell (Static) method | – | 0.00175 ± 0.00013 kPa
332.83 K, Metastable liquid, Closed cell (Static) method | – | 0.00373 ± 0.00019 kPa
332.87 K, Crystal, Closed cell (Static) method | – | 0.00215 ± 0.00014 kPa
334.8 K, Metastable liquid, Closed cell (Static) method | – | 0.00439 ± 0.00021 kPa
334.84 K, Crystal, Closed cell (Static) method | – | 0.00266 ± 0.00015 kPa
336.81 K, Metastable liquid, Closed cell (Static) method | – | 0.00517 ± 0.00023 kPa
336.83 K, Crystal, Closed cell (Static) method | – | 0.0033 ± 0.00017 kPa
338.81 K, Metastable liquid, Closed cell (Static) method | – | 0.00609 ± 0.00027 kPa
338.83 K, Crystal, Closed cell (Static) method | – | 0.00407 ± 0.0002 kPa
340.8 K, Metastable liquid, Closed cell (Static) method | – | 0.00717 ± 0.0003 kPa
340.83 K, Crystal, Closed cell (Static) method | – | 0.00502 ± 0.00023 kPa
342.78 K, Metastable liquid, Closed cell (Static) method | – | 0.00834 ± 0.00035 kPa
342.8 K, Crystal, Closed cell (Static) method | – | 0.0061 ± 0.00027 kPa
344.77 K, Crystal, Closed cell (Static) method | – | 0.00747 ± 0.00032 kPa
344.79 K, Metastable liquid, Closed cell (Static) method | – | 0.00978 ± 0.0004 kPa
346.69 K, Metastable liquid, Closed cell (Static) method | – | 0.01123 ± 0.00045 kPa
346.73 K, Crystal, Closed cell (Static) method | – | 0.00911 ± 0.00038 kPa
348.72 K, Crystal, Closed cell (Static) method | – | 0.01103 ± 0.00045 kPa
348.73 K, Metastable liquid, Closed cell (Static) method | – | 0.01314 ± 0.00052 kPa
350.68 K, Metastable liquid, Closed cell (Static) method | – | 0.01523 ± 0.00055 kPa
350.7 K, Crystal, Closed cell (Static) method | – | 0.01345 ± 0.00052 kPa
352.63 K, Metastable liquid, Closed cell (Static) method | – | 0.01755 ± 0.00059 kPa
354.6 K, Metastable liquid, Closed cell (Static) method | – | 0.02014 ± 0.00063 kPa
356.63 K, Closed cell (Static) method, Liquid | – | 0.02334 ± 0.00068 kPa
358.57 K, Closed cell (Static) method, Liquid | – | 0.02665 ± 0.00073 kPa
360.48 K, Closed cell (Static) method, Liquid | – | 0.03073 ± 0.00079 kPa
362.45 K, Closed cell (Static) method, Liquid | – | 0.03517 ± 0.00086 kPa
364.45 K, Closed cell (Static) method, Liquid | – | 0.04012 ± 0.00093 kPa
366.47 K, Closed cell (Static) method, Liquid | – | 0.04555 ± 0.001 kPa
368.43 K, Closed cell (Static) method, Liquid | – | 0.05205 ± 0.0011 kPa
370.37 K, Closed cell (Static) method, Liquid | – | 0.05931 ± 0.0012 kPa
372.38 K, Closed cell (Static) method, Liquid | – | 0.06765 ± 0.0014 kPa
374.32 K, Closed cell (Static) method, Liquid | – | 0.07665 ± 0.0015 kPa
376.51 K, Closed cell (Static) method, Liquid | – | 0.08673 ± 0.0016 kPa
378.22 K, Closed cell (Static) method, Liquid | – | 0.09764 ± 0.0018 kPa
380.28 K, Closed cell (Static) method, Liquid | – | 0.1104 ± 0.002 kPa
382.26 K, Closed cell (Static) method, Liquid | – | 0.1243 ± 0.0022 kPa
[1], 298.15 K, Crystal | 23.8 ± 0.645 | –
[1], 375.81 K, Liquid | 17.9 ± 0.574 | –

Conditions | Normal melting temperature [°C]
Crystal, DTA | 82.6 ± 0.5

Conditions | Molar enthalpy of transition or fusion [kcal/mol]
[2] | 5.47 ± 0.215
